# Experiments:
# DU145 prostate carcinoma = conditions: DU145 s.c. in athymic mice; delay to reach 1 g tumor; Compound 1 30 mg/kg ip BID days 10-18; docetaxel 7.5 mg/kg iv days 10, 14, 18; combination: docetaxel days 10, 14, 18, Compound 1 days 11, 12, 13, 15, 16, 17, 19, 20, 21
# Description: Balb, Nu\Nu male mice, from Harlan (Italy), were maintained in cages with paper filter cover, food and bedding sterilized and water acidified. 2.5×10^6 DU145 prostate carcinoma cells (from the American Type Culture Collection) were injected subcutaneously in athymic mice.
# The treatment started 10 days later tumor cells injection when tumors were palpable. Docetaxel was prepared immediately before treatment, compound 1 of formula (A) was prepared daily, on the basis of known stability of the compound.
# Compound 1 was administered by intraperitoneal route in a volume of 10 ml/kg at the doses of 30 mg/kg twice a day (BID) for 9 days (days 10 to 18). Docetaxel was administered by intravenous route in a volume of 10 ml/kg at the dose of 7.5 mg/kg on days 10, 14, 18 from the days of cell injection. When combined, compound 1 was administered in the interval between the docetaxel treatments at days 11, 12, 13, 15, 16, 17, 19, 20 and 21. Tumor growth and body weight were measured every 3 days. Tumor growth was assessed by caliper. The two diameters were recorded and the tumor weight was calculated according the following formula:
# length (mm)×width^2/2. The effect of the antitumor treatment was evaluated as the delay in the onset of an exponential growth of the tumor (see for references, Anticancer drugs 7:437-60, 1996). […] Toxicity was evaluated on the basis of body weigh reduction.
# [1] = system: A2780 human ovarian carcinoma; experiment: In vivo antitumor efficacy of the combination with irinotecan; conditions: for TGI %: A2780 s.c. in athymic mice, Compound 1 30 mg/kg ip BID days 13-17, irinotecan 60 mg/kg iv day 13, combination: irinotecan 50 mg/kg day 13 + Compound 1 30 mg/kg days 13-17
# Description: A2780 human ovarian carcinoma cells were obtained from American Type Culture Collection (Rockville, Md.) and were maintained in vitro as continuous cultures in RPMI medium supplemented with 10% FBS, at 37° C., 5% CO2. For in vivo experiments 8×10^6 A2780 were implanted subcutaneously in athymic mice. This tumor model was selected because it was sensitive to platinum derivatives and also on the basis of use of this drugs in ovarian cancer.
# (§1) The treatment started when tumors were palpable (day 13). Both compounds were prepared immediately before treatment.
# When combined, compound 1 was administered from day 1 to day 5, irinotecan at day 1. […] Tumor growth was assessed by caliper. […] Animals were sacrificed on day 37 after tumor implant, day 24 from the start of treatments and tumors were weighted. The effect of the antitumor treatment was evaluated as percentage of tumor growth inhibition of the treated group respect to control.
# [2] = system: BX-PC3 human pancreatic carcinoma; experiment: In vivo antitumor efficacy in combination with gemcitabine; conditions: BX-PC3 s.c. in athymic mice; compound 1 15 mg/kg ip BID days 9-17; gemcitabine 80 mg/kg iv days 9, 13, 17; combination: gemcitabine days 9, 13, 17, compound 1 days 10, 11, 12, 14, 15, 16, 18, 19, 20
# Description: Fragments of BX-PC3 human pancreatic carcinoma were implanted subcutaneously in athymic mice. […] The treatment with gemcitabine started at day 9 after tumor implantation, when tumors were palpable. Compounds were prepared immediately before treatments.
# When combined, gemcitabine was administered at days 9, 13, 17 and compound 1 was administered for the following 3 days after gemcitabine administration. […] Tumor growth was assessed by caliper. […] The effect of the antitumor treatment was evaluated as percentage of tumor growth inhibition (TGI %). Toxicity was evaluated on the basis of body weight reduction.
# [3] = system: A2780 human ovarian carcinoma; experiment: In vivo antitumor efficacy in combination with cisplatin; conditions: A2780 s.c. in athymic mice; Compound 1 15 mg/kg ip BID days 13-17; cisplatin 8 mg/kg iv day 17; combination: same doses and days
# Description: A2780 human ovarian carcinoma cells were obtained from American Type Culture Collection (Rockville, Md.) and were maintained in vitro as continuous cultures in RPMI medium supplemented with 10% FBS, at 37° C., 5% CO2. For in vivo experiments 8×10^6 A2780 cells were implanted subcutaneously in athymic mice.
# as §1
# Tumor growth was assessed by caliper. […] Animals were sacrificed on day 37 after tumor implant, day 24 from the start of treatments and tumors were weighted. The effect of the antitumor treatment was evaluated as percentage of tumor growth inhibition of the treated group respect to control.
Compound,T-C (DU145 prostate carcinoma),TGI % [1],TGI % [2],TGI % [3],"Toxicity ([1]; evaluated on the basis of body weight reduction, A2780 mice, Compound 1 30 mg/kg ip BID, irinotecan iv, alone or combined)"
"CO[C@@H](C(=O)N1Cc2[nH]nc(NC(=O)c3ccc(N4CCN(C)CC4)cc3)c2C1)c1ccccc1 [Compound 1, N-{5-[(2R)-2-methoxy-2-phenylethanoyl]-1,4,5,6-tetrahydropyrrolo[3,4-c]pyrazol-3-yl}-4-(4-methylpiperazin-1-yl)benzamide]",5.3 days,72.3%,53%,46%,–
Nc1ccn([C@@H]2O[C@H](CO)[C@@H](O)C2(F)F)c(=O)n1 [gemcitabine],–,–,61%,–,–
"N.N.[Cl][Pt][Cl] [Cisplatin, cisplatin]",–,–,–,21%,–
CC(=O)O[C@@]12CO[C@@H]1C[C@H](O)[C@@]1(C)C(=O)[C@H](O)C3=C(C)[C@@H](OC(=O)[C@H](O)[C@@H](NC(=O)OC(C)(C)C)c4ccccc4)C[C@@](O)([C@@H](OC(=O)c4ccccc4)[C@H]21)C3(C)C [docetaxel],3.7 days,–,–,–,–
CCc1c2c(nc3ccc(OC(=O)N4CCC(N5CCCCC5)CC4)cc13)-c1cc3c(c(=O)n1C2)COC(=O)[C@]3(O)CC [irinotecan],–,62%,–,–,0/7

# From patent publication US20110117212A1, “THERAPEUTIC COMBINATION COMPRISING AN AURORA KINASE INHIBITOR AND AN ANTINEOPLASTIC AGENT” (priority 2008, published 2011)
